Results from PMC11304990, “Identification of mitochondrial ATP synthase as the cellular target of Ru-polypyridyl-β-carboline complexes by affinity-based protein profiling” (National Science Review, 2024).

Columns and labels:
[1] = Aqueous solubility by concentration-absorbance linearity; format: physicochemical; settings: PBS with 1% DMSO
From the text: Subsequently, the lipophilicity and aqueous solubility of Ru1–Ru9 were investigated.

[2] = tested on: cisplatin-resistant A549R; experiment: MTT antiproliferative assay, A549R; format: cell-based, human; settings: 72 h
From the text: (§1) Ru3–Ru9 also show a certain selectivity for cancer cells over normal cells, and Ru2, Ru3, Ru5 and Ru9 show higher selectivity index (SI) values than the other complexes.
(§2) PA-BPP was then used to confirm the molecular targets of Ru5 by modifying it with a ‘minimalist’ biorthogonal handle-containing photo-cross-linker. Through our structure–activity relationship analysis and comparison with other ruthenium complexes utilizing phen as the auxiliary ligands with similar coordination structures (using cisplatin as a control), we propose that the β-carboline ligands play an important role in antiproliferative activity. To maintain the binding characteristics of the β-carboline moiety with the targeted biomolecules, we linked the photo-cross-linker to one of the auxiliary ligands of Ru5.

[3] = tested on: A549 cells; experiment: Wound healing and transwell migration assays; format: cell-based, human; settings: 5 μM
Method: Figure 4. Ru5 induces mitophagy and ferroptosis and inhibits EMT in vitro. (A) TEM images of A549 cells treated with vehicle (1% DMSO) or Ru5 (10 μM, 12 h). Red rectangles represent the region enlarged. Scale bar: 5 μm and 500 nm (enlarged). (B) The morphological examination of mitochondria in A549 cells treated with Ru5 (10 μM) for the indicated time intervals. MTG: λex = 514 nm; λem = 540 ± 20 nm. LTDR: λex = 633 nm; λem = 700 ± 20 nm. Scale bar: 20 μm. (C) Western blotting analysis showing the impact of Ru5 (24 h) on the expression of proteins related to mitochondrial dysfunction and ferroptosis. (D and E) The impact of different inhibitors on antiproliferative activity of Ru5 (24 h). (F) RT-qPCR analysis of EMT-related genes in A549 cells after Ru5 (10 μM, 12 h) treatment. (G) The impact of Ru5 (5 μM) on the migration of A549 cells was measured by a wound healing assay. Scale bar: 100 μm. (H) Quantitative analysis of the impact of Ru5 on wound healing. (I) Selective images of the impact of Ru5 (5 μM, 48 h) on the migration of A549 cells detected by transwell assay. Scale bar: 100 μm. […] Firstly, real-time quantitative polymerase chain reaction (RT-qPCR) experiments (Fig. 4F) confirm that Ru5 can down-regulate genes including CDH1 (cadherin 1), FN1 (fibronectin 1) and MMP2 (matrix metallopeptidase 2).

[4] = tested on: triple negative breast cancer (MDA-MB-231); experiment: MTT antiproliferative assay, MDA-MB-231; format: cell-based, human; settings: 72 h
From the text: as §1, §2

[5] = tested on: human lung fibroblast-like (HLF) cells; experiment: MTT antiproliferative assay, HLF; format: cell-based; settings: 72 h
From the text: as §1, §2

[6] = tested on: ATP5F1; experiment: Cellular thermal shift assay (CETSA); format: cell-based; settings: 10 μM
Method: (§3) Figure 1. Validation of ATP5F1 as the molecular target of Ru5. (A) Proteins pulled down by streptavidin from A549 cells treated with Ru5a followed by PAL. The cells were treated with Ru5a (50 μM) for 12 h and irradiated with UV light for 20 min. (B) The top five peptides enriched by Ru5a-mediated PAL were identified with the assistance of SILAC-based chemoproteomic studies. H1F0: H1 histone family member 0; HIST4H4: histone cluster 4 H4; HIST3H2BB: histone cluster 3 H2B family member b; ATP5F1E: ATP synthase F1 subunit epsilon; HIST1H2AJ: histone cluster 1 H2A family member J. (C) Pull-down western blotting analysis of ATPase in A549 cells treated with Ru5a. (D) Cellular Ru content in cells treated with Ru5/Ru5a (20 μM, 12 h) measured by ICP-MS. (E) Impact of Ru5/Ru5a (10 μM) on the thermal stability of ATP5F1 measured by CETSA. (F) Impact on the anticancer activities of Ru5/Ru5a against wild type and ATPase knocking down (by siRNA) A549 cells. The relative cellular viability was calculated using the cells without drug treatment in each group as the control group. (G) Inhibition of Ru5/Ru5a on the enzymatic activity of ATPase. (-)-blebbistatin was used as the positive control. (H) Molecular docking of Ru5 with ATPase (PDB: 3ZIA). The red dashes indicate the hydrogen bonds formed between Ru5 and the amino acid residues (SER38 and GLN39). […]

[7] = tested on: mitochondria; experiment: Subcellular Ru content by ICP-MS; format: cell-based; settings: 20 μM, 12 h
Method: as §3

## F[P-](F)(F)(F)(F)F.F[P-](F)(F)(F)(F)F.[Ru+2].c1ccc2c(c1)[nH]c1c(-c3ncc[nH]3)nccc12.c1cnc2c(c1)ccc1cccnc12.c1cnc2c(c1)ccc1cccnc12 [Ru5]
[1]
  Linear relationship between absorbance and concentration up to: at least 100 μM
[2]
  IC50: 3.3 ± 0.7 µM
[3]
  Migration rates of A549 cells: markedly decrease
[4]
  IC50: 7.7 ± 0.2 µM
[5]
  IC50: 33.9 ± 0.2 µM
[6]
  Thermal stability of ATP5F1: increased
[7]
  Subcellular location (cellular Ru content): mainly located in mitochondria
